These results are taken from patent US6864271B2, “Synergistic combinations including N-acylated 4-hydroxyphenylamine derivatives” (The Foundation for the LSU Health Sciences Center, priority 2002, dated 2005).

Data set [1] has as its system mice. Kind of data set: abdominal stretch assay (i.p. acetic acid). The conditions noted are these: oral, FIG. 1; for number of abdominal stretches (percentage of control): 55 min before i.p. 10 ml/kg 0.4% acetic acid, counted 10 min. In kind it is in vivo, mouse.
In data set [2] the test system is mice. As to conditions: cited from earlier work.
For data set [3], the system named is C57/b16 mice. Kind of data set: hepatotoxicity study, transaminase activity after oral dosing. The conditions noted are these: 24 hours after oral dose in corn oil; acetaminophen/SCP-1 3.7 mmole/kg, codeine 50 mg/kg; FIG. 3.
The conditions of data set [4]: background statement; cited from earlier work.
In data set [5] the test system is C57/b16 mice. As to conditions: prior work (Paul et al., 1998; Bazan patents); cited from earlier work.
In data set [6] the test system is mice. As to conditions: background statement; cited from earlier work.
The conditions of data set [7]: background statement; cited from earlier work. The source holds these as a separate data set.

`CC(=O)Nc1ccc(O)cc1` [acetaminophen, reference compound]: the “number of abdominal stretches (percentage of control)” value (“number … (percentage of control)” below) with mice [1] is listed as “dose-dependent decrease”. The LD50 (in general, the dose at which mortality reaches 50%) in the data set with mice [2] (mice) is 3.7 mmol/kg.
As to `COc1ccc2c3c1O[C@H]1[C@@H](O)C=C[C@H]4[C@@H](C2)N(C)CC[C@@]341` [codeine, reference compound], in the data set with C57/b16 mice [3], the “GPT activity in serum” value is recorded as “neither SCP-1 nor codeine, nor the combination of both, produced any significant increase”. Also, the “number … (percentage of control)” value in the data set with mice [1] is “dose-dependent decrease”.
As to `O=C(CN1C(=O)c2ccccc2S1(=O)=O)Nc1ccc(O)cc1` [SCP-1], the “potency compared with acetaminophen, formalin” value in data set [4] is recorded as “more potent”. Further, the “GPT activity in serum” value with C57/b16 mice [3] was “neither SCP-1 nor codeine, nor the combination of both, produced any significant increase”. In addition, in the data set on C57/b16 mice [5], the hepatotoxicity entry was “lower in hepatotoxicity”. In addition, in the data set with mice [6], the “potency compared with acetaminophen, abdominal stretch” value is on record as “more potent”. For the same compound, the “analgesic potency compared with acetaminophen” value with mice [1] (abdominal stretch assay, mice) is listed as “significantly greater than acetaminophen”. For the same compound, in the data set on mice [1], the “number … (percentage of control)” value is on record as “dose-dependent decrease”. For the same compound, the “potency compared with acetaminophen, Freund's adjuvant-induced inflammation” value in data set [7] is given as “more potent”. Besides, the “toxicity compared with acetaminophen” value in the data set with mice [2] (Paul et al., 1998) is “lower in toxicity”.
